Measured values reported in US12121521B2, “Uses of salt-inducible kinase (SIK) inhibitors for treating osteoporosis” (The General Hospital Corporation, priority 2016, dated 2024).
Entries after “also recorded” stand apart in the source; their conditions may differ.

Columns and labels:
Ocy454 cells = test: cAMP radioimmunoassay; type: cell-based, mouse; conditions: 20 minutes; FIG. 14B
Experimental: Cells, in 96 well plates, were treated with indicated ligands for 20 minutes at room temperature in the presence of the phosphodiesterase inhibitor 3-isobutyl-1-methylxanthine (IBMX, Sigma I5879, 2 mM). The medium was then removed and cells were lysed in 50 mM HCl and transferred to −80C. Thawed lysates were diluted 1:5 with dH2O, and an 10 μl aliquot was assessed for cAMP content by radioimmunoassay using ^125I-cAMP analog as a tracer and unlabeled cAMP to generate a standard curve.

[1] = test system: oophorectomized (OVX) female C57B/6 mice; test: OVX mice: micro-CT, histomorphometry, bone turnover markers; type: in vivo, mouse
Experimental: Assessment of bone morphology and microarchitecture was performed with high-resolution micro-computed tomography (pCT40; Scanco Medical, Brüttisellen, Switzerland). In brief, the distal femoral metaphysis and mid-diaphysis were scanned using 70 kVp peak x-ray tube potential, 113 mAs x-ray tube current, 200 ms integration time, and 10-μm isotropic voxel size. Cancellous bone was assessed in the distal metaphysis and cortical bone was assessed in the mid-diaphysis. The femoral metaphysis region began 1700 μm proximal to the distal growth plate and extended 1500 μm distally. Cancellous bone was separated from cortical bone with a semiautomated contouring program. For the cancellous bone region, bone volume fraction (BV/TV, %), trabecular thickness (Tb.Th, mm), trabecular separation (Tb.Sp, mm), trabecular number (Tb.N, 1/mm), connectivity density (Conn.D or ConnD, 1/mm^3), and structure model index (SMI) were assessed. Transverse CT slices were also acquired in a 500 μm long region at the femoral mid-diaphysis to assess total cross-sectional area, cortical bone area, and medullary area (Tt.Ar, Ct.Ar, and Ma.Ar, respectively, all mm^2); bone area fraction (Ct.Ar/Tt.Ar, %), cortical thickness (Ct.Th, mm), porosity (Ct.Po, %) and minimum (Imin, mm^4), maximum (Imax, mm^4), and polar (J, mm^4) moments of inertia. Bone was segmented from soft tissue using the same threshold, 300 mg HA/cm^3 for trabecular and 733 mg HA/cm^3 for cortical bone. Scanning and analyses adhered to the guidelines for the use of micro-CT for the assessment of bone architecture in rodents (74). For the primary spongiosa region (where intermittent PTH treatment has its predominant effect) analyzed in FIG. 13A, coronal CT slices were evaluated in a 500 μm (50 slices) region located centrally in the bone. […] The primary spongiosa bone region was identified by semi-manually contouring the region of interest. Images were thresholded using an adaptive-iterative algorithm. The average adaptive-iterative threshold of control mice (WT, vehicle treated) for the region of interest (299 mgHA/cm^3) were then used to segment bone from soft tissue for all distal femur images. Micro-CT analysis was done based on sample numbers in a completely blinded manner.
Right tibia from 8-week-old mice were subjected to bone histomorphometric analysis. […] The structural, dynamic and cellular parameters were calculated and expressed according to the standardized nomenclature (75).
48 female C57B/6 mice were subjected to sham surgery (SHAM; n=24) or oophorectomy (n=24) at 12 weeks of age. […] The mice were assessed by micro-CT (μ-CT) of the femur and L5 vertebrae, and static/dynamic histomorphometry of the tibia.

[2] = In vivo toxicity experiments (weight, CBC, serum chemistry); parameters: species or system mouse
Text: Blood was obtained for the complete blood count (CBC) measurement, and serum was obtained for the glucose, blood urea nitrogen (BUN), cholesterol, triglycerides, ALT, Creatine kinase (CK), amylase, and total protein measurements. […] “WBC” refers to “white blood cell”. “Hgb” refers to “hemoglobin”. “Pit” refers to “platelet”.

| SMILES | cAMP levels (Ocy454 cells) | osteoblast numbers ([1]; FIG. 32A) | osteoclast activity / eroded surfaces ([1]; FIG. 32C) | bone formation rate ([1]; FIG. 33C) | trabecular bone mass ([1]; distal femur and L5 vertebrae) | growth or peripheral blood counts ([2]; 4 week treatment) | weight gain ([2]; 4 week treatment (weeks 20-24)) | toxicity judged from hematology data ([2]; 4 week treatment, FIGS. 36A to 36D) |
| --- | --- | --- | --- | --- | --- | --- | --- | --- |
| COc1ccc(N2C(=O)N(c3c(C)cccc3C)Cc3cnc(Nc4ccc(C5CCN(C)CC5)c(OC)c4)nc32)c(OC)c1 [YKL-05-093] | does not induce cAMP generation; also recorded: without increasing cAMP levels | – | – | – | – | – | – | – |
| COc1ccc(N2C(=O)N(c3c(C)cccc3Cl)Cc3cnc(Nc4ccc(C5CCN(C)CC5)cc4OC)nc32)nc1 [YKL-05-099] | – | increased osteoblast numbers | reduced eroded surfaces | increased | increased trabecular bone mass at both skeletal sites | Neither PTH nor YKL-05-099 altered growth or peripheral blood counts | normal weight gain | not toxic under the test conditions |
